# Reference: a melting point compilation (Tetko et al.; mined from patent text by program, amines drawn as free bases though some values may be those of a salt)
row,SMILES,melting point
1,COC(Nc1ccccc1)(OC)c1ccnc(C(=O)c2ccc(Cl)cc2)c1,137 to 138 °C
2,O=C(c1ccc([N+](=O)[O-])c([N+](=O)[O-])c1)N1CCOCC1,136 to 137 °C
3,Cc1ccc2c(c1)C=Cc1cc(C)ccc1C2c1cn(Cc2nc(C(=O)Nc3nc(CC(=O)O)cs3)cs2)c(=O)[nH]c1=S,200 to 205 °C
4,O=C1NCC(CO)C1(c1ccccc1)c1ccccc1 (stereo not given),145 to 148 °C
5,CCOC(=O)N1CCC(NS(=O)(=O)c2ccc3ccccc3c2)CC1,128 °C
6,CNC(=O)c1nn(-c2ccccc2)c(O)c1N=Nc1ccc(S(=O)(=O)NCCCCCCBr)cc1,234 to 236 °C
7,O=C1C(c2ccc3c(c2)OCO3)c2ccccc2N1Cc1ccc(Cl)cc1 (stereo not given),161 to 163 °C
8,Cc1ncccc1COc1ccc(Cn2cc(CCC(=O)O)c(-c3ccccc3)c2)cc1,158 to 159 °C
9,CC(=O)N(C)c1ccc2c(c1)cc(C(=O)c1ccc(C)cc1)n2C,193 to 195 °C
10,COC(=O)c1cc(C)nc(Nc2ccc(C(C)C)cc2Br)n1,75 to 76 °C
11,O=C(O)CCOc1cccc2ncccc12,217 to 219 °C
12,COc1ccc(C(=O)c2cccs2)c2occ(C)c12,131 to 134 °C
13,COC(=O)Cc1cc([N+](=O)[O-])ccc1OC,92 °C
14,CCOC(=O)CN(CC(=O)OCC)C(=O)c1cc(OCCCCCCCCCCCCOc2ccccc2)ccc1OCc1ccccc1,49 to 50 °C
15,Cn1nnc2cccc(C(O)c3cccc(F)c3)c21 (stereo not given),152 °C
16,CC(C)(C)c1cc(-c2nn(C(=O)c3ccc(Cl)cc3)c3ncccc23)cc(C(C)(C)C)c1O,256 to 258 °C
17,CC(C)N(C(=O)CC(C#N)(CCN1CCCCC1)c1ccccc1Cl)C(C)C (stereo not given),83 to 85 °C
18,CC(C)[C@H](NC(=O)OCc1ccccc1)C(=O)NC(Cc1ccccc1)C(O)C(Cc1ccccc1)NC(=O)[C@@H](NC(=O)c1cccnc1)C(C)C (stereo not given in full),196 to 199 °C
19,COC(=O)C(ON1C(C)(C)CCCC1(C)C)c1ccccc1 (stereo not given),83 to 86 °C
20,CS(=O)(=O)c1ccc(-n2cc(-c3ccc4ccccc4c3)nc2-c2ccc(Cl)cc2)cc1,204 to 206 °C
21,COc1ccc(-c2sc3cc(OC)ccc3c2C(=O)c2ccc(/C=C/C(=O)O)cc2)cc1,204 to 207 °C
22,Cc1nn(C)c(NC(=O)Nc2ccccc2)c1C1=CCCC1,204 °C
23,CCOC(=O)C(C(=O)OCC)c1cccc(C(=O)c2ccccc2)c1[N+](=O)[O-],130 to 131 °C
24,C[C@H](NC(=O)CCSC(=O)c1ccccc1)C(=O)O,99 to 100 °C
25,O=Cc1c2n(c3ccncc13)CCC2,150 to 151 °C

row,SMILES,melting point
1,CCC1=NC(NC(=O)Nc2cccc(C)c2)C(=O)N(CC(=O)N2CCCCCCC2)c2c(C)cccc21 (stereo not given),189 to 190 °C
2,OCc1nc(Cl)cc(N2CCCC2)n1,90 to 93 °C
3,O=c1c2ccccc2ccn2c(SC(F)(F)F)ccc12,137 to 138 °C
4,CCOC(=O)CSc1nc(Cl)c(C)c(NCc2ccc(Cl)cc2)n1,114 to 117 °C
5,COc1ccc(-c2nc(Sc3ccccc3NC(C)=O)[nH]c2-c2ccc(OC)cc2)cc1,183 °C
6,CCCNc1nc(N)nc2c1ncn2C1CC(F)C(CO)O1 (stereo not given),153 °C
7,CC1CN(C)CCC1Oc1cccc(NC(=O)c2ccc(F)cc2Cl)n1 (stereo not given),155 to 160 °C
8,C#CCOc1ccc(CCNC(=O)[C@@H](O)c2ccccc2)cc1OC,81 to 83 °C
9,Cc1c(NC(=O)CC(C)(C)C)cc2c(c1C)OC(C)(C)C2(O)c1ccc(C(C)C)cc1 (stereo not given),119 to 121 °C
10,CS(=O)(=O)c1c(C(=O)NN=Cc2cccc3ccccc23)[nH]c2ccccc12,> 250 °C
11,COc1cc(-c2ccnc(Nc3cccc(OC(F)(F)C(F)F)c3)n2)cc(OC)c1OC,132 °C
12,O=C1OC2(CCCCC2)OC(=O)C12CC2,134 to 135 °C
13,CCOC(=O)/C(=N\OC1CCNC1=O)c1csc(NC(c2ccccc2)(c2ccccc2)c2ccccc2)n1 (stereo not given),209 to 210 °C
14,CC(Cl)=Cc1ccc([N+](=O)[O-])o1,55 to 65 °C
15,CCOC(=O)c1ccc(NCCCCCCCCCCC[Si](C)(C)C)cc1,66 to 68 °C
16,CCCc1c(OCCCCCCc2cccc(OC(C)=O)c2OC(C)=O)ccc(C(=O)O)c1O,120 to 122 °C
17,CC(C)Oc1c(C(N)=O)oc2ccc(Cl)cc12,154 to 155 °C
18,CC(=O)Nc1cccc(C(c2cccc(NC(C)=O)c2)(C(F)(F)F)C(F)(F)F)c1,309 to 311 °C
19,Cn1cc2c(cc1=O)CCCC2=O,94 to 97 °C
20,CN(C)CCNC(=O)c1cccc(N)c1,97 to 100 °C
21,COc1ccc(-c2nc(NC(=N)N3CCN(C)CC3)sc2-c2ccc(OC)cc2)cc1,161 to 162 °C
22,COc1cccc2c(=O)c3cccc(OC)c3sc12,248 to 250 °C
23,CCOC(=O)C=C1CN=C(c2ccccc2Cl)c2cc(Cl)ccc2N1,103 to 105 °C
24,CN1CCN(CCCN(C)C(=O)Cn2c(-c3cccc(Cl)c3)nc3cccnc32)CC1,114 to 117 °C
25,O=C(NCCCN1CCN(c2ccccc2OCC(F)(F)F)CC1)c1csc2c(=O)cc(-c3ccccc3)oc12,152 to 158 °C
